Test results as given in US20090227670A1, “PHARMACEUTICAL COMPOSITIONS COMPRISING FLAVONOIDS AND MENTHOL” (priority 2002, published 2009).

How the values were obtained:
Format in all cases: cell-based, human rhinovirus
rhinovirus-T39 = test: antiviral activity of HuIFN-α versus rhinovirus in presence and absence of menthol (MTS method, WISH cells); conditions: menthol 1:800
Description: Rhinovirus 1A, rhinovirus 15 and rhinovirus 39 were titrated according to the tetrazolium salt (MTS)-method (Berg et al., 1990) (Hansen et al., 1989)). WISH cells were seeded in a micro tray at 3000 cells per well and incubated at 37° C., 5% CO2 overnight; the following morning the medium was replaced with 10-fold dilutions of either rhinovirus 1A, rhinovirus 15 or rhinovirus 39, respectively, in fresh medium and the trays were incubated 4-5 days at 33° C.; a microscopical examination confirmed that the CytoPathogenic Effect (CPE) was fully developed (CPE equal to 100%). The minimal amount of virus (i.e.: the highest dilution of the virus in question) which produced 100% destruction was used as “challenge virus” in the subsequent experiments. To quantitate the CPE in terms of % destruction, MTS (Berg and Owen, 2003) was added to all cultures and after 3 h incubation at 37° C. (without CO2) the trays were read in a scanner as previously described (Berg et al., 1990). […]
The results were graphed with the concentration of interferon on the horizontal scale and the OD492 readings on the vertical scale.

rhinovirus T39 = test: rhinovirus titration on WISH cell monolayers in presence or absence of menthol; conditions: menthol dilution 1:800; virus dilution range 10^2-10^3; WISH cells (FIG. 2A)
Description: Rhinovirus 1A, rhinovirus 15 and rhinovirus 39 were titrated according to the tetrazolium salt (MTS)-method (Berg et al., 1990) (Hansen et al., 1989)). WISH cells were seeded in a micro tray at 3000 cells per well and incubated at 37° C., 5% CO2 overnight; the following morning the medium was replaced with 10-fold dilutions of either rhinovirus 1A, rhinovirus 15 or rhinovirus 39, respectively, in fresh medium and the trays were incubated 4-5 days at 33° C.; a microscopical examination confirmed that the CytoPathogenic Effect (CPE) was fully developed (CPE equal to 100%). The minimal amount of virus (i.e.: the highest dilution of the virus in question) which produced 100% destruction was used as “challenge virus” in the subsequent experiments. To quantitate the CPE in terms of % destruction, MTS (Berg and Owen, 2003) was added to all cultures and after 3 h incubation at 37° C. (without CO2) the trays were read in a scanner as previously described (Berg et al., 1990). Control cell cultures, that were not infected with virus, were included in the experiment; the latter gave the highest OD as these cells were not damaged; depending on the concentration of virus added to the different wells, the OD492 varied, accordingly: 100% CPE yielded a low OD (<0.200); 0% CPE corresponding to no infection at all (controls cell) gave a high OD (>1.200). […]

RHV 1A, 17, and 39A = test: rhinovirus titration in presence of menthol, all three rhinoviruses employed
Description: WISH cells were seeded in a micro tray at 3000 cells per well and incubated at 37° C., 5% CO2 overnight; the following morning the medium was replaced with 10-fold dilutions of either rhinovirus 1A, […], respectively, in fresh medium and the trays were incubated 4-5 days at 33° C.; a microscopical examination confirmed that the CytoPathogenic Effect (CPE) was fully developed (CPE equal to 100%). The minimal amount of virus (i.e.: the highest dilution of the virus in question) which produced 100% destruction was used as “challenge virus” in the subsequent experiments. To quantitate the CPE in terms of % destruction, MTS (Berg and Owen, 2003) was added to all cultures and after 3 h incubation at 37° C. (without CO2) the trays were read in a scanner as previously described (Berg et al., 1990). Control cell cultures, that were not infected with virus, were included in the experiment; the latter gave the highest OD as these cells were not damaged; depending on the concentration of virus added to the different wells, the OD492 varied, accordingly: 100% CPE yielded a low OD (<0.200); 0% CPE corresponding to no infection at all (controls cell) gave a high OD (>1.200). […]

Compound: CC(C)[C@@H]1CC[C@@H](C)C[C@H]1O [Menthol, levo-(−)-Menthol]
- potentiation of interferon antiviral activity (interferon curve+menthol versus interferon curve) (rhinovirus-T39; interferon range 0 to 8 units/ml, HRV T39, similar at 10^-2.5): specific potentiation
- protection compared to uninfected control cells (rhinovirus-T39; HRV T39 at 10^-2, IFN=0 units/ml, WISH cells, OD492 (FIG. 1A)): 10-15%
- increase in protection compared to virus controls receiving no menthol (rhinovirus T39): ~50%
- protection against rhinovirus (RHV 1A, 17, and 39A): protection was seen
